One block for each molecule: values may come before it. Where a SMILES comes first, the peptide text is derived from it.
What was measured:
DUSP18 [1] = biological target: T1, DUSP18 (Homo sapiens, UniProt Q8NEJ0); assay: SPR (Biacore T200) binding to DUSP18
T1 construct: For purification of full-length WT human DUSP18 and DUSP18 (C104S) proteins; His (N); made in house; host or cells: E. coli
T1 sequence (Q8NEJ0 1-188): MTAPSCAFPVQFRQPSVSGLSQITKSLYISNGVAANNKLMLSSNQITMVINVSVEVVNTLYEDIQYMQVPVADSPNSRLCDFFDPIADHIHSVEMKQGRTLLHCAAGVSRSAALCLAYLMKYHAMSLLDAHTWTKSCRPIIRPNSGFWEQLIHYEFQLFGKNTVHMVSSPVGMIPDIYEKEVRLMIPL
Procedure: SPR was determined using a Biacore T200 instrument (GE). SRC or DUSP18 protein was immobilized on the sensor chip (CM5) using the amine-coupling method according to standard protocols. Immobilization was performed according to the manufacturer’s recommendations. SRC protein (64 ug/mL, pH5.0) or DUSP18 protein (25 ug/mL, pH7.4) was diluted in 10 mM acetate buffer or 10 mM PBS buffer. Sh2-sh3 (100 ug/mL, pH5.0) was diluted in 10 mM acetate buffer. The kinetics and affinity assay were examined at 25 °C at a flow rate of 30 µl/minute using PBS buffer with 0.05% Tween-20. The KD values were calculated with the kinetics analysis (1:1 model) of Biacore T200 evaluation software. The interaction of GPR54 CT, peptides of PR motifs with Src or DUSP18, and the interaction of DUSP18 and Src were analyzed respectively by regeneration with pH 2.0 Gly-HCl buffer.
The C terminus of human GPR54 (H329- L398) and mouse Gpr54 (R331- L396) cDNAs were subcloned into a pGEX-4T2 vector. For purification of full-length WT human DUSP18 and DUSP18 (C104S) proteins, DUSP18 was cloned into pMCSG7 vector. […]

Dusp18 knockout mice = assay: bone and osteoclast parameters in Dusp18 knockout mice; format: in vivo, mouse; settings: TRAP staining and osteoclast parameters, femur
From the text: Data represent means ± SEM. […] Representative results were obtained from at least three independent experiments. Source data are provided as a Source Data file.

GPR54 / Src interaction = assay: Co-IP: interaction of GPR54 with Src in transfected 293T cells; format: cell-based, human; settings: inhibitor 1 h (U73122 10 µM, Staurosporine 0.25 µM, LY3214996 10 µM, KN-93 10 µM, Saracatinib 10 µM), then 10 nM Kp-10 20 min
Procedure: Data represent means ± SEM. P values were determined by one-way ANOVA analysis (b, c, e, g, i, k). Representative results were obtained from at least three independent experiments. Source data are provided as a Source Data file.
Whole-cell proteins were extracted using 1x RIPA buffer (25 mM Tris, pH7.5, 150 mM NaCl, 0.5% Sodium deoxycholate, 1% Triton-X-100) supplemented with protease inhibitors (Complete Mini, Roche) and phosphatase inhibitors (phosphatase inhibitor cocktail set I and II, Calbiochem). Immunoprecipitation and immunoblotting with indicated antibodies were performed as described in Supplementary Table 1. Image Jsoftware (V1.52) was used for quantification analysis. Uncropped and unprocessed blots are presented in the Supplementary Information file.
Error bars are ± SEM. […] Source data are provided as a Source Data file.

Src = assay: GST pull-down with WCL of 293T cells transfected with HA-Src; format: binding
From the text: Fig. 2 GPR54 recruited Src via the PR motif in GPR54 C-Terminus. a Sequence analysis of the PR motif in multiple species of GPR54 CT. b SH3 domain protein-binding array using the TranSignal™ SH3 Domain Array kit. The principal Src binding region is circled in red evident (1 Src; 2 the dilution of Src in half). c SPR binding-affinity measurement of Src and GPR54 CT. […] GPR54 CT bound with the SH3 domain of Src mainly via the key residues including R336, P339 and P342. e–h IB analysis of total samples and GST pull-downs using GST proteins including GST, GST-GPR54 CT, GST-GPR54 CT m1 (R336A&P339A), GST-GPR54 CT m2 (delta 339–344) incubated separately with WCL of 293 T cells transfected with HA-Src (e) and quantification of protein levels (f), IB analysis of WCL and anti-GPR54 IP assays derived from RAW264.7 cells induced by Kp-10 for 20 min (g) and quantification of protein levels (h). i, j IF staining was carried out using pre-osteoclasts differentiated from BMMs with M-CSF (10 ng/ml) and RANKL (50 ng/ml) stimulation for 2 days, then treated with 10 nM Kp-10 for 20 min. Representative images of endogenous Gpr54 and Src were shown by total internal reflection fluorescence (TIRF) microscopy (i), and the Mander’s overlap coefficient (MOC) as a measure of colocalization in cells from multiple images taken randomly (j). Scale bar, 50 μm. Data represent means ± SEM. […] These are best readings. […]

DUSP18 [2] = assay: GST pull-down with WCL of 293T cells transfected with DUSP18; format: binding; settings: WCL of 293T cells transfected with DUSP18-HA
Procedure: Beads were analyzed by phosphatase activity assay (a), mass spectrometry assay (b), IB analysis (c) and quantification of protein levels (d). e, f Protein co-localization was analyzed by IF staining in primary pre-osteoclast with 10 nM Kp-10 treatment for 20 min. […] Scale bar, 50 µm. g, h binding affinity was measured by SPR binding analysis. […] Data represent means ± SEM. P values were determined by one-way ANOVA analysis (a, d, j, l) or two-tailed Student’s t-test (f). Representative results were obtained from at least three independent experiments. Source data are provided as a Source Data file.
Supplementary Fig. 6 a, b IB and quantification of protein levels analysis. […] Error bars are ± SEM. P-values were determined by two-tailed Student’s t-test (b, e) or by one-way ANOVA analysis (h, j). *P <0.05, **P <0.01, ***P <0.001, ****P <0.0001. Representative results were observed from at least three independent experiments. Source data are provided as a Source Data file.

[3] = biological target: T2, His-SRC protein, Src (G85-L536) (human, UniProt P12931 85-536); assay: SPR; Biacore T200, SRC protein immobilised on CM5 by amine coupling (64 ug/mL, pH 5.0, acetate); 25 °C, 30 µl/minute, PBS with 0.05% Tween-20; kinetics analysis, 1:1 model; settings: both partners purified
T2 construct: human Src, G85-L536, in pFastBac HT B; In the SPR it is called 'SRC protein'; removal of the tag is not mentioned; source: Sf9 (Bac-to-Bac baculovirus), purified; not shown: His6, N-terminal, kept

kon (DUSP18 [1]; printed in the picture of the figure, read-out: ka): 1130 ± 9500 M⁻¹ s⁻¹
Molecule: CC(C)[C@H](NC(=O)[C@@H](N)CCCNC(=N)N)C(=O)N[C@@H](CS)C(=O)N1CCC[C@H]1C(=O)N[C@@H](CS)C(=O)N[C@@H](CS)C(=O)N[C@@H](CCCNC(=N)N)C(=O)O [Gpr54^336–342] (H-RVCPCCR-OH; N-terminus and C-terminus assumed)

Molecule: O=C(Cc1ccc(-c2ccc(OCCN3CCOCC3)cc2)cn1)NCc1ccccc1 [KX2-391]
rescue of Dusp18 deletion induced osteoclast activity (Dusp18 knockout mice): efficiently rescued

SPR curve when titrated with Dusp18 (DUSP18 [1]; synthesized mouse Gpr54 peptide): generated an unfitted SPR curve
Molecule: Gpr54^339–344: right-shifted mouse Gpr54 peptide which corresponds to the PxxRxR motif (PCCRQR)

Molecule: COc1ccc2c(c1)CC[C@@H]1[C@@H]2CC[C@]2(C)[C@@H](NCCCCCCN3C(=O)C=CC3=O)CC[C@@H]12 [U73122]
effect on Kp-10 induced interaction of GPR54 with Src (GPR54 / Src interaction): not by the inhibitors

Molecule: R336A&P339A mutant of human GPR54 CT: GST-GPR54 CT m1 (R336A&P339A)
binding of Src (GST pull-down) (Src): dramatically dampened the interaction of Src with GPR54 CT | binding of DUSP18 (GST pull-down) (DUSP18 [2]): dampened its interaction with DUSP18

Molecule: COc1ccc(S(=O)(=O)N(CCO)c2ccccc2CN(C)C/C=C/c2ccc(Cl)cc2)cc1 [KN-93]
effect on Kp-10 induced interaction of GPR54 with Src (GPR54 / Src interaction): not by the inhibitors

B1: △339–344 (deletion sign: △) mutant of GPR54 CT: GST-GPR54 CT m2 (delta 339–344) (protein)
chain: HFRQAFRRVCPRRPRRPGPSDPAAPHAELLRLGSHPAPARAQKPGSSGLAARGLCVLGEDNAPL
modifications: left off: GST, N-terminal, kept
binding of Src (GST pull-down) (Src): completely abolished the binding of Src with GPR54 CT | binding of DUSP18 (GST pull-down) (DUSP18 [2]): abolished the binding with DUSP18

Kd [3]: 28.3 µM
B2: GPR54^333–344 (N-terminal half of the PR motif) (peptide, UniProt Q969F8 333-344, looked up)
peptide: AFRRVCPCAPRR
notes: source: synthetic peptide (GL Biochem)

Kd [3]: 4.24 µM
B3: peptide of GPR54^336–356 (peptide, UniProt Q969F8 336-356, looked up)
peptide: RVCPCAPRRPRRPRRPGPSDP
notes: human GPR54 (KiSS1R), residues 336-356 of the PR motif; source: synthetic peptide (GL Biochem)
